From patent publication US20250034159A1, “INHIBITORS OF EPIDERMAL GROWTH FACTOR RECEPTOR” (ORIC Pharmaceuticals, Inc., priority 2021, published 2025)
Like-named read-outs stand apart in the source and are kept apart here.

Legend:
BaF3_EGFR LR/CS cells = test: Biological Activity Assay D: BaF3 cell proliferation assay, EGFR L858R/C797S mutant (BaF3 LR/CS); assay type: cell-based; details: Ba/F3 EGFR, read-out: BaF3 LR/CS IC50
Procedure: (§1) One frozen vial of cells should be thawed into one T25 flask in 10 mL media. Keep the flask upright in the incubator.
(§2) Method: One frozen vial of cells was thawed into one T25 flask in 10 mL media and the flask was kept upright in the incubator. Cells were split 1:10 every two to three days when cells reached confluency of around 1×10^6 cells/mL. Bravo protocol files were used with Greiner 384-well plates for all steps of compound preparation, cell plating and compound addition. […] 16 μL of DMSO were added (for compounds starting at 20 μM) or 28 μL DMSO (for compounds starting at 5 μM) to 96-well V-bottom polypropylene plate: wells 1A-1H (8 compounds/plate). […] 20 μL DMSO were added to the remainder of the wells (columns 2-12) in the 96-well V-bottom plate. A Bravo liquid handler was used to make 1:3 serial dilutions from columns 1 to 11 (12 remains as DMSO only) to prepare the DMSO dilution plate. 144 μL media were added to each well of a new 96-well V-bottom polypropylene plate to prepare the intermediate dilution plate. A Bravo or 96-head Integra liquid handler was used to add and mix 6 μL of test compound from the DMSO dilution plate to the intermediate dilution plate. (1:25 dilution). Cells were transferred from a flask into a 50 mL conical, vortex gently and the number of cells were counted, with a target cell number of about 1×10^6 cells per mL. The cells were diluted in culture medium in 50 mL conical or T25 flask, and the cell suspension was added to BRAVO reservoir and then use Bravo protocol to plate the appropriate number of cells shown below in 36 μl of medium per well as follows: Ba/F3-WT-EGFR 2000 cells per well of a 384 well plate; Ba/F3-LR/CS-EGFR 2000 cells per well of a 384 well plate; and Ba/F3-d19/CS-EGFR 1500 cells per well of a 384 well plate. An extra 10 mL of dead volume was utilized in each reservoir.
(§3) Using a Bravo liquid handler, 4 μl of test compound solution was added per well from the intermediate dilution plate to plated cells (1:10 dilution from the intermediate plate, final compound dilution 1:250 and final DMSO concentration per well is 0.4%). Using the 96 BRAVO Head, 25 μl were aspirated from the intermediate dilution plate and 4 μl each were dispensed into 4 wells (square pattern) in the 384-well plate. Any remaining test compound is dispensed into a secondary plate to prevent cross contamination of cells in the intermediate compound plate. After the compounds were added, the plate was shaken at 600 rpm gently for 60 see, and the plates were incubated in a tissue culture incubator, 37° C., 5% CO2, for ˜ 72 hours. After incubation, CTG 2.0 reagent was allowed to equilibrate to room temperature (˜3 hours) and cells to reach room temperature (˜10-15 minutes) and reagent was added to cells (40 μL/well) using a Bravo liquid handler. The plates were shaken to allow proper mixing (˜5 min) and let settle for 10 minutes and were read on Tecan plate reader using the appropriate luminescence method. Data from plate reader was transferred to an excel file and entered directly into Dotmatics using the protocols under EGFR Project/Cell Proliferation/named: “BaF3_EGFRwt_CP”, “BaF3_EGFR_d19/CS_CP”, “BaF3_EGFR_LR/CS_CP”. Curves were fit with a 4-parameter model and IC50s calculated by the Dotmatics software. DMSO wells were averaged to define the high control (100% growth). The average of the highest concentration of the positive control compound (afatinib) was used to define the 0% growth and used to lock the bottom of the curves. The tops of the curves were not fixed.

BaF3_EGFR d19/CS cells = test: Biological Activity Assay D: BaF3 cell proliferation assay, EGFR exon 19 deletion/C797S (BaF3 d19/CS); assay type: cell-based; details: Ba/F3 EGFR, read-out: BaF3 d19/CS IC50
Procedure: as §1, §2, §3

[1] = biological target: recombinant human EGFR exon 19 deletion/C797S double mutant protein (Homo sapiens (Human), UniProt P00533, C797S/DEL746-750); test: Biological Activity Assay C: biochemical assay against EGFR exon 19 deletion/C797S protein (EGFR d19/CS)
Procedure: In Row A of a 384-well polypropylene plate, was added 48 μL of DMSO. In wells A1 and A24, were added 12 μL of DMSO. […] To a well in Row A were added 12 μL of each 10 mM test compound stock (100% DMSO). […] The final intermediate dilution plate contained 4×16-point compound serial dilutions in assay buffer. The DMSO concentration was 10%. The intermediate compound dilution plate was transferred to the Bravo and the “5 uL dispense into ARP.pro” protocol was run. To the black low volume assay ready plates, were added 5 μL of 40 uM Phosphosens peptide sensor/4 mM ATP working solution to each well. […] To column 24, was added 10 μL of assay buffer. The final DMSO concentration was 2.5%. […] The plates were sealed with the TopSeal-A Plus plate seals. […] Set for 90 cycles with 120 second interval. […] The slope of each curve was constructed using Dotmatics in each well, and each IC50s was calculated using a 4-parameter fit model.

Ba/F3_EGFR WT cells = test: Biological Activity Assay D: BaF3 cell proliferation assay, EGFR wild-type (BaF3 WT); assay type: cell-based; details: Ba/F3 EGFR, read-out: BaF3 WT IC50
Procedure: as §1, §2, §3

[2] = BaF3_EGFR LR/CS cells, ~72 hours, CellTiter-Glo
[3] = BaF3_EGFR d19/CS cells, ~72 hours, CellTiter-Glo
[4] = Ba/F3_EGFR WT cells, ~72 hours, CellTiter-Glo

recombinant human EGFR exon 19 deletion/C797S double mutant protein, sequence (P00533 other isoform, or with tags, fused parts or gaps C797S/del 1-668/del 746-750 limits assumed): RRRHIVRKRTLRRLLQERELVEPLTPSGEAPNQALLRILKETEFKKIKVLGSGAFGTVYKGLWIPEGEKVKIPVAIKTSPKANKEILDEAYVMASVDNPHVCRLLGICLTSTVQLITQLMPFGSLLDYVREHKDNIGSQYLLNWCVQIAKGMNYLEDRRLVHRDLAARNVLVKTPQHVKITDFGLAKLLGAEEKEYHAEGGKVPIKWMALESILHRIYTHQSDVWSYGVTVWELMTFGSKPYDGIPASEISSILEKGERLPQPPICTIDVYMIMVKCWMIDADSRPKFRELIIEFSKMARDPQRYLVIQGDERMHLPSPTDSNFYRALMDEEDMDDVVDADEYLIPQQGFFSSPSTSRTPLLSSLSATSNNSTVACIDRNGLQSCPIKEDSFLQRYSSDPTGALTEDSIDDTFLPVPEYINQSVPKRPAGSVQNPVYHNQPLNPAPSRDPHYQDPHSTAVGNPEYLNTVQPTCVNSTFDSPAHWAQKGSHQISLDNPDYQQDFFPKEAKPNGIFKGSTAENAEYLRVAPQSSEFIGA

| SMILES | IC50 (BaF3_EGFR LR/CS cells; [2]) | IC50 (BaF3_EGFR d19/CS cells; [3]) | IC50 [1] | IC50 (Ba/F3_EGFR WT cells; [4]) | IC50 (BaF3_EGFR LR/CS cells; 72 h) | IC50 (BaF3_EGFR d19/CS cells; 72 h) | IC50 (Ba/F3_EGFR WT cells; 72 h) |
| --- | --- | --- | --- | --- | --- | --- | --- |
| Fc1ccc(-c2nn([C@@H]3CCCOC3)cc2-c2ncnc3oc(-c4ccccc4)cc23)cc1 (single isomer, unassigned) [Example 136] | 81.5 nM | 127 nM | 0.97 nM | 3050 nM |  |  |  |
| Fc1ccc(-n2nccc2-c2ccnc3[nH]c(-c4ccccc4)cc23)cc1 [Example 1, 4-[1-(4-fluorophenyl)-1H-pyrazol-5-yl]-2-phenyl-1H-pyrrolo[2,3-b]pyridine] | 349 nM | 211 nM |  | 2570 nM |  |  |  |
| OCCCc1nc(-c2ccnc3[nH]c(-c4ccccc4)cc23)n(-c2ccc(F)cc2)n1 [Example 2, 3-[1-(4-Fluorophenyl)-5-(2-phenyl-1H-pyrrolo[2,3-b]pyridin-4-yl)-1H-1,2,4-triazol-3-yl]propan-1-ol] | 89.5 nM | 104 nM |  | 724 nM |  |  |  |
| OCCCn1cc(-c2ccnc3cc(-c4ccccc4)[nH]c23)c(-c2ccc(F)cc2)n1 [Example 7, 3-[3-(4-Fluorophenyl)-4-(2-phenyl-1H-pyrrolo[3,2-b]pyridin-7-yl)-1H-pyrazol-1-yl]propan-1-ol] | 694 nM | 508 nM |  | 4710 nM |  |  |  |
| [2H]C([2H])([2H])n1cc(-c2ncnc3oc(-c4ccccc4)cc23)c(-c2ccc(F)cc2)n1 [Example 48, 4-[3-(4-Fluorophenyl)-1-(2H3)methyl-1H-pyrazol-4-yl]-6-phenylfuro[2,3-d]pyrimidine] |  |  |  |  | 60.4 nM | 47.9 nM | 2210 nM |
| Cn1cc(-c2ncnc3oc(-c4ccccc4)cc23)c(-c2ccc(F)cc2)n1 [Example 63, 4-[3-(4-Fluorophenyl)-1-methyl-1H-pyrazol-4-yl]-6-phenylfuro[2,3-d]pyrimidine] |  |  |  |  | 35.4 nM | 48.5 nM | 1270 nM |
| O=S1(=O)CCC(n2cc(-c3ncnc4oc(-c5ccccc5)cc34)c(-c3ccc(F)cc3)n2)CC1 [Example 83, 4-[3-(4-fluorophenyl)-4-(6-phenylfuro[2,3-d]pyrimidin-4-yl)-1H-pyrazol-1-yl]-1λ6-thiane-1,1-dione] | 529 nM | 640 nM |  | > 20000 nM |  |  |  |
| Fc1ccc(-c2nn(CCOC(F)(F)F)cc2-c2ncnc3oc(-c4ccccc4)cc23)cc1 [Example 144, 4-{3-(4-Fluorophenyl)-1-[2-(trifluoromethoxy)ethyl]-1H-pyrazol-4-yl}-6-phenylfuro[2,3-d]pyrimidine] | 33.6 nM | 89.6 nM |  | 1610 nM |  |  |  |
| Fc1ccc(-c2nn(CCC(F)F)cc2-c2ccnc3oc(-c4ccccc4)cc23)cc1 [Example 157, 4-[1-(3,3-difluoropropyl)-3-(4-fluorophenyl)-1H-pyrazol-4-yl]-2-phenylfuro[2,3-b]pyridine] | 15.2 nM | 40.8 nM |  | 1590 nM |  |  |  |
| O=S1(=O)CC(n2cc(-c3ncnc4oc(C5=CCN(S(=O)(=O)C6CC6)CC5)cc34)c(-c3ccc(F)cc3)n2)C1 [Example 177, 3-[4-{6-[1-(cyclopropanesulfonyl)-1,2,3,6-tetrahydropyridin-4-yl]furo[2,3-d]pyrimidin-4-yl}-3-(4-fluorophenyl)-1H-pyrazol-1-yl]-1λ6-thietane-1,1-dione] | 42 nM | 56.4 nM |  | 1590 nM |  |  |  |
